Each block holds one compound with its values, some of them ahead of it. The source made the active and inactive calls.
Tests used:
Coagulation factor XII = target: T1, Coagulation factor XII (Homo sapiens, UniProt P00748); format: functional;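 further: activated factor XIIa alpha cleaving a fluorogenic AMC peptide substrate; inhibitor potency from loss of enzyme activity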
T1 sequence (P00748 whole entry): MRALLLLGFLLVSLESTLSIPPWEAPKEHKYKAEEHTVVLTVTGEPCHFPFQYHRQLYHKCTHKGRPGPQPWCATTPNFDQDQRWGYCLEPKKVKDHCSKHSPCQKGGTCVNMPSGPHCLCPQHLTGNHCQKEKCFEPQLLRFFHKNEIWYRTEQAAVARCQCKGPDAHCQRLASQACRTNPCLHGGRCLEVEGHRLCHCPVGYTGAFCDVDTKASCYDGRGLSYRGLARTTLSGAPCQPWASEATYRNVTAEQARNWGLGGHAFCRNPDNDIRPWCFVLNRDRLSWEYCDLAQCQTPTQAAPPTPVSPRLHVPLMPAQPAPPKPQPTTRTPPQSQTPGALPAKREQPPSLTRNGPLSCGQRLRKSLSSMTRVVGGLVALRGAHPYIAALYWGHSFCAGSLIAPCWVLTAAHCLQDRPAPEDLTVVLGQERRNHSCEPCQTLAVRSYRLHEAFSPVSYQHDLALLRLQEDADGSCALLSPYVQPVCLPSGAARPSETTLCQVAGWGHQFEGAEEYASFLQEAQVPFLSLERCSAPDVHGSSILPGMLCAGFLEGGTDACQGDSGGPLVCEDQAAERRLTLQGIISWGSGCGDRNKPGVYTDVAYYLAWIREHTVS

cells [1] = format: functional, cell-based
cells [2] = format: functional, cell-based; remark: listed apart in the source
[3] = target: T2, Ubiquitin-conjugating enzyme E2 N (Homo sapiens, UniProt P61088); format: functional;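 further: Dose-response confirmation in a TR-FRET assay detecting UBC13-driven polyubiquitin chain formation, inhibition measured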
T2 sequence (P61088 whole entry): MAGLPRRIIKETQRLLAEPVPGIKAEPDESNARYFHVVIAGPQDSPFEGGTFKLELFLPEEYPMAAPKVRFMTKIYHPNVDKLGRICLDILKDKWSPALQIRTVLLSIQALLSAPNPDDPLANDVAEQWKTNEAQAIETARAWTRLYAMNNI

[4] = target: T3, RNA-binding protein pos-1 (Caenorhabditis elegans, UniProt G5EF15); assay: disruptors of C. elegans POS-1 RNA interaction – biochemical, fluorescence polarization, dose response (AID 1964);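 further: purified POS-1 fused to maltose binding protein made in E. coli; potency of compounds blocking POS-1 binding to fluorescent RNA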
T3 sequence (G5EF15 whole entry): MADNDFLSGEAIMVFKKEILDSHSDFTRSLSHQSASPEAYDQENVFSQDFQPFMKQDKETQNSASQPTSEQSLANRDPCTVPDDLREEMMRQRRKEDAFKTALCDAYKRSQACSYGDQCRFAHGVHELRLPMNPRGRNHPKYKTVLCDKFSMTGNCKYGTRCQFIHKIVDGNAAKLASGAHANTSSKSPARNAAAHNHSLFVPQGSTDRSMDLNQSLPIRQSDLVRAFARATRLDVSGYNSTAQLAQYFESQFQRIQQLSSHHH

[5] = target: T4, Zinc finger protein mex-5 (Caenorhabditis elegans, UniProt Q9XUB2); assay: potency of MEX-5 RNA-binding blockers – biochemical, C. elegans, fluorescence polarization, dose response (AID 1960)
T4 sequence (Q9XUB2 whole entry): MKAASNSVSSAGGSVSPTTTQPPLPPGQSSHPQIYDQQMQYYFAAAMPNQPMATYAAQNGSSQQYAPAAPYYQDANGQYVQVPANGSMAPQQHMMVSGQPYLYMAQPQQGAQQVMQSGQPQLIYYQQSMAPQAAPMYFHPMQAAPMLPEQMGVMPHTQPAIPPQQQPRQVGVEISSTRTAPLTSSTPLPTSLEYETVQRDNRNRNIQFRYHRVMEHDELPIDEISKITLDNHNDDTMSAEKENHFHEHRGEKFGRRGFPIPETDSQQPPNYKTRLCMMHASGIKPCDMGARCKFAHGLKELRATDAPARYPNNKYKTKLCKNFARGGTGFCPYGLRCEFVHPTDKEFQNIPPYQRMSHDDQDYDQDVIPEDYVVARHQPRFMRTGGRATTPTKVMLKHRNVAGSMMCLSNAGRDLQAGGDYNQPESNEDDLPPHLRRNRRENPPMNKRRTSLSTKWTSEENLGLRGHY

HEK293 = assay: EBV LMP1 TES2 canonical NF-kB signalling blockers – cell-based, HEK293, luciferase, cherry-pick, dose response (AID 588343); format: functional; settings: Homo sapiens
[6] = target: T5, Polyadenylate-binding protein 1 (Homo sapiens, UniProt P11940); assay: MLLE domain peptide-binding blockers, IC50 – biochemical, fluorescence polarization, FITC-PAM2 peptide, dose response (AID 602259); format: functional; settings: read-out: IC50_Mean
T5 sequence (P11940 whole entry, the tested form may be a part): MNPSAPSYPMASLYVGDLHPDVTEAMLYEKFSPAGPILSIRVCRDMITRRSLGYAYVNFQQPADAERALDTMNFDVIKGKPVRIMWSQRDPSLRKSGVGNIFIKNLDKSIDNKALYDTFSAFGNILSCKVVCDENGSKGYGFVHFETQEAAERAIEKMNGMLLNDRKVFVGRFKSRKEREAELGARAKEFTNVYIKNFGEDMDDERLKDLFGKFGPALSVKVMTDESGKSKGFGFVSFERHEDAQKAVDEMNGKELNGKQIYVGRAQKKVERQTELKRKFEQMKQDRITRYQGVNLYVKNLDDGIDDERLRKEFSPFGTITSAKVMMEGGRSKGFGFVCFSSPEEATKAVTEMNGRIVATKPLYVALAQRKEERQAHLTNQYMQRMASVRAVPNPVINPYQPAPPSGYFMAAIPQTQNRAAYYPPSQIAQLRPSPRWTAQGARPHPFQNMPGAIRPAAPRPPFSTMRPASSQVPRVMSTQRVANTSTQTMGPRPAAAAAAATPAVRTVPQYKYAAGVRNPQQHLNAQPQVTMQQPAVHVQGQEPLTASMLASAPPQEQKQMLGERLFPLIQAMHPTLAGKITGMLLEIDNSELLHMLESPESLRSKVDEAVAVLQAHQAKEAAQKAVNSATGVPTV

[7] = target: T5, Polyadenylate-binding protein 1; assay: MLLE binding blockers, Cy5 peptide tracer – biochemical, fluorescence polarization, Cy5-PAM2 peptide, secondary, miRNA deadenylation inhibitor project, dose response (AID 602260); format: functional; settings: read-out: IC50_Mean

Compound: Cc1ccc(C2(C)NC(=O)N(CC(=O)Nc3ccccc3N3CCCC3)C2=O)cc1 (stereo unspecified)
EC50 (cells [1]): > 350 µM (not active)
EC50 (cells [2]): > 350 µM (not active)

Compound: O=C(CCCCCN1C(=O)c2cccc3cccc(c23)C1=O)NC1CCS(=O)(=O)C1 (stereo unspecified)
IC50 [3]: > 20 µM (inactive)

Compound: Cc1ccc(OCC(=O)Nc2nnn(C)n2)c(C)c1
IC50 (Coagulation factor XII): > 50 µM (inactive)

Compound: c1ccc(C[C@H]2CNCCN2CCC23CC4CC(CC(C4)C2)C3)cc1
IC50 [3]: > 20 µM (inactive)

Compound: COCCNC(=O)C(=O)NCC1OCCN1S(=O)(=O)c1cc(F)ccc1F (stereo unspecified)
EC50 (cells [1]): > 350 µM (not active)
EC50 (cells [2]): > 350 µM (not active)

Compound: COC(C[C@H](O)C[C@@H](O)[C@H](C)OCc1ccccc1)OC
IC50 (Coagulation factor XII): > 50 µM (inactive)

Compound: CCC(CO)n1c(SCc2cc(=O)oc3cc(C)ccc23)nc2ccccc2c1=O (stereo unspecified)
IC50 (Coagulation factor XII): > 50 µM (inactive)

Compound: Cc1ccc(C(=O)Nc2cccc(C(=O)N/N=C/c3ccccc3F)c2)cc1
AC50 (HEK293): 7.43 µM (active)

Compound: CC1CN(S(=O)(=O)c2cccc(C(=O)N(CCc3ccccc3)Cc3ccccc3)c2)CC(C)O1 (stereo unspecified)
EC50 (cells [1]): > 350 µM (not active)
EC50 (cells [2]): > 350 µM (not active)

Compound: CCN(CC)C(=O)c1cc2c(=O)c3cc(Cl)ccc3oc2nc1C
EC50 [4]: > 300 µM (not active)
EC50 [5]: > 300 µM (not active)

The remaining lines, values ahead:

IC50 (Coagulation factor XII): > 50 µM (inactive)
Compound: CCOC(=O)c1cccc(NC(=O)CSc2nnc(-c3ccoc3C)n2CCOC)c1

IC50 [3]: > 20 µM (inactive)
Compound: O=C(CSc1nc2ccsc2c(=O)n1Cc1ccc(C(=O)O)cc1)NCc1ccco1

EC50 [4]: 51.9 µM (active)
EC50 [5]: 82.7 µM (active)
Compound: CCCOc1cccc(C2C(C(=O)c3ccco3)=C(O)C(=O)N2c2nnc(C)s2)c1 (stereo unspecified)

IC50 [6]: > 66 µM (inactive)
IC50 [7]: > 66 µM (inactive)
Compound: O=S(=O)(NC(=S)NC1CCCCC1)c1cccs1

IC50 [6]: > 66 µM (inactive)
IC50 [7]: > 66 µM (inactive)
Compound: CC(=O)Nc1ccc(SCC(=O)NC(=O)c2ccccc2Br)cc1

EC50 [4]: 38.9 µM (active)
EC50 [5]: 34.6 µM (active)
Compound: Cc1cc(O)c(C(C)C)cc1N=C1CSC(=O)N1

EC50 [4]: > 300 µM (not active)
EC50 [5]: > 300 µM (not active)
Compound: Cc1c(NC(=O)CSc2ccc(Cl)cc2)cccc1-c1nc2cc(Cl)ccc2o1
